Assay results taken from patent publication US8592455B2 (priority 2008, dated 2013).

Experiments:
Pim3 kinase = Pim3 kinase (Homo sapiens (Human), UniProt Q86V86); conditions: read-out: Pim3 IC50
Pim1 kinase = Pim1 kinase (Homo sapiens (Human), UniProt P11309); conditions: read-out: Pim1 IC50
Pim1 kinase, sequence (P11309 whole entry): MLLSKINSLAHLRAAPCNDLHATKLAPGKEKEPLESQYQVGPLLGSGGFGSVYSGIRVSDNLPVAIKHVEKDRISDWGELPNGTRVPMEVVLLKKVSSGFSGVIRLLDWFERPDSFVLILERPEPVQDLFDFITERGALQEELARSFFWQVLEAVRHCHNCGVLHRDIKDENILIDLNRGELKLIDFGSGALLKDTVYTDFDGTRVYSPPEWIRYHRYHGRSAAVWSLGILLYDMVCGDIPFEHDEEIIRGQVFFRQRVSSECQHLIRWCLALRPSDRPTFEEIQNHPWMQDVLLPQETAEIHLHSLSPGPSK

C[C@@H]1C[C@H](c2ccncc2NC(=O)c2cccc(-c3c(F)cccc3F)n2)C[C@H](N)[C@H]1O (stereo in doubt) [Example 52, N-(4-((1S,3S,4S,5R)-3-amino-4-hydroxy-5-methylcyclohexyl)pyridin-3-yl)-6-(2,6-difluorophenyl)picolinamide]
IC50 (Pim3 kinase): 2 nM
IC50 (Pim1 kinase): 1 nM

C[C@H]1C[C@@H](c2ccncc2NC(=O)c2ccc(F)c(C3CCCCC3)n2)C[C@@H](N)[C@@H]1O (stereo in doubt) [Example 89, N-(4-(3-amino-4-hydroxy-5-methylcyclohexyl)pyridin-3-yl)-6-cyclohexyl-5-fluoropicolinamide]
IC50 (Pim3 kinase): 29 nM
IC50 (Pim1 kinase): 8 nM

C[C@H]1C[C@@H](c2ccncc2NC(=O)c2nc(C3CCCCC3)ccc2N)C[C@@H](N)[C@@H]1O (stereo in doubt) [Example 90, 3-amino-N-(4-(3-amino-4-hydroxy-5-methylcyclohexyl)pyridin-3-yl)-6-cyclohexylpicolinamide]
IC50 (Pim3 kinase): 12 nM
IC50 (Pim1 kinase): 3 nM

C[C@@H]1C[C@H](N)C[C@H](c2ccncc2NC(=O)c2ccc(F)c(C3CCCCC3)n2)C1 (stereo in doubt) [Example 91, N-(4-(3-amino-5-methylcyclohexyl)pyridin-3-yl)-6-cyclohexyl-5-fluoropicolinamide]
IC50 (Pim3 kinase): 21 nM
IC50 (Pim1 kinase): 3 nM

CC(=O)O[C@H]1CC[C@@H](c2ccncc2NC(=O)c2nc(-c3c(F)cccc3F)ccc2N)C[C@H]1N (stereo in doubt) [Example 101, 2-amino-4-(3-(3-amino-6-(2,6-difluorophenyl)picolinamido)pyridin-4-yl)cyclohexyl acetate]
IC50 (Pim3 kinase): 5 nM
IC50 (Pim1 kinase): 2 nM

C[C@H]1C[C@@H](c2ccncc2NC(=O)c2nc(-c3c(F)cccc3F)c(F)cc2N)C[C@@H](N)[C@@H]1O (stereo in doubt) [Example 130, 3-amino-N-(4-(3-amino-4-hydroxy-5-methylcyclohexyl)pyridin-3-yl)-6-(2,6-difluorophenyl)-5-fluoropicolinamide]
IC50 (Pim1 kinase): 2 nM

Nc1cc(F)c(-c2c(F)cccc2F)nc1C(=O)Nc1cnccc1[C@@H]1CC[C@H](O)[C@H](N)C1 (stereo in doubt) [Example 131, 3-amino-N-(4-(3-amino-4-hydroxycyclohexyl)pyridin-3-yl)-6-(2,6-difluorophenyl)-5-fluoropicolinamide]
IC50 (Pim1 kinase): 2 nM

C[C@H]1C[C@@H](c2ccncc2NC(=O)c2nc(-c3c(F)cccc3F)c(F)cc2N)C[C@@H](N)[C@H]1O (stereo in doubt) [Example 132, 3-amino-N-(4-(3-amino-4-hydroxy-5-methylcyclohexyl)pyridin-3-yl)-6-(2,6-difluorophenyl)-5-fluoropicolinamide]
IC50 (Pim1 kinase): 1 nM

C[C@@H]1C[C@H](N)C[C@H](c2ccncc2NC(=O)c2nc(-c3c(F)cccc3F)c(F)cc2N)C1 (stereo in doubt) [Example 133, 3-amino-N-(4-(3-amino-5-methylcyclohexyl)pyridin-3-yl)-6-(2,6-difluorophenyl)-5-fluoropicolinamide]
IC50 (Pim3 kinase): 7 nM
IC50 (Pim1 kinase): 1 nM

C[C@H]1C[C@@H](c2ccncc2NC(=O)c2ccc(F)c(-c3c(F)cc(O)cc3F)n2)C[C@@H](N)[C@@H]1O [Example 4, N-(4-((1R,3R,4R,5S)-3-amino-4-hydroxy-5-methylcyclohexyl)pyridin-3-yl)-6-(2,6-difluoro-4-hydroxyphenyl)-5-fluoropicolinamide]
IC50 (Pim3 kinase): 2 nM
IC50 (Pim1 kinase): 1 nM

C[C@H]1C[C@@H](c2ccncc2NC(=O)c2ccc(F)c(-c3cc(O)ccc3F)n2)C[C@@H](N)[C@@H]1O [Example 5, N-(4-((1R,3R,4R,5S)-3-amino-4-hydroxy-5-methylcyclohexyl)pyridin-3-yl)-5-fluoro-6-(2-fluoro-5-hydroxyphenyl)picolinamide]
IC50 (Pim3 kinase): 9 nM
IC50 (Pim1 kinase): 3 nM

N[C@H]1CCC[C@@H](c2ccncc2NC(=O)c2cccc(-c3cc(O)ccc3F)n2)C1 [Example 7, N-(4-((1R,3S)-3-aminocyclohexyl)pyridin-3-yl)-6-(2-fluoro-5-hydroxyphenyl)picolinamide]
IC50 (Pim3 kinase): 2 nM
IC50 (Pim1 kinase): 1 nM

N[C@H]1CCC[C@@H](c2ccncc2NC(=O)c2cccc(-c3c(F)cc(O)cc3F)n2)C1 [Example 8, N-(4-((1R,3S)-3-aminocyclohexyl)pyridin-3-yl)-6-(2,6-difluoro-4-hydroxyphenyl)picolinamide]
IC50 (Pim3 kinase): 2 nM
IC50 (Pim1 kinase): 1 nM

N[C@H]1CCC[C@@H](c2ccncc2NC(=O)c2ccc(F)c(-c3ccc(O)cc3F)n2)C1 [Example 9, N-(4-((1R,3S)-3-aminocyclohexyl)pyridin-3-yl)-5-fluoro-6-(2-fluoro-4-hydroxyphenyl)picolinamide]
IC50 (Pim3 kinase): 2 nM
IC50 (Pim1 kinase): 1 nM

CC1(C)C[C@H](N)C[C@H](c2ccncc2NC(=O)c2ccc(F)c(-c3ccc(O)cc3F)n2)C1 [Example 10, N-(4-((1R,5R)-5-amino-3,3-dimethylcyclohexyl)pyridin-3-yl)-5-fluoro-6-(2-fluoro-4-hydroxyphenyl)picolinamide]
IC50 (Pim3 kinase): 6 nM
IC50 (Pim1 kinase): 1 nM

Cc1ccc(F)c(-c2nc(C(=O)Nc3cnccc3[C@H]3C[C@@H](N)CC(C)(C)C3)ccc2F)c1F [Example 11, N-(4-((1R,5R)-5-amino-3,3-dimethylcyclohexyl)pyridin-3-yl)-6-(2,6-difluoro-3-methylphenyl)-5-fluoropicolinamide]
IC50 (Pim3 kinase): 4 nM
IC50 (Pim1 kinase): 1 nM

Cc1ccc(F)c(-c2cccc(C(=O)Nc3cnccc3N3C[C@@H](N)[C@H](O)[C@@H](C)C3)n2)c1F [Example 13, N-(4-((3R,4R,5S)-3-amino-4-hydroxy-5-methylpiperidin-1-yl)pyridin-3-yl)-6-(2,6-difluoro-3-methylphenyl)picolinamide]
IC50 (Pim3 kinase): 3 nM
IC50 (Pim1 kinase): 1 nM

C[C@H]1CN(c2ccncc2NC(=O)c2ccc(F)c(C3CCCCC3)n2)C[C@@H](N)[C@@H]1O [Example 16, N-(4-((3R,4R,5S)-3-amino-4-hydroxy-5-methylpiperidin-1-yl)pyridin-3-yl)-6-cyclohexyl-5-fluoropicolinamide]
IC50 (Pim1 kinase): 1 nM

C[C@H]1CN(c2ccncc2NC(=O)c2ccc(F)c(-c3ccccc3F)n2)C[C@@H](N)[C@@H]1O [Example 25, N-(4-((3R,4R,5S)-3-amino-4-hydroxy-5-methylpiperidin-1-yl)pyridin-3-yl)-5-fluoro-6-(2-fluorophenyl)picolinamide]
IC50 (Pim1 kinase): 1 nM

C[C@H]1CN(c2ccncc2NC(=O)c2cccc(-c3c(F)cccc3F)n2)C[C@@H](N)[C@@H]1O [Example 26, N-(4-((3R,4R,5S)-3-amino-4-hydroxy-5-methylpiperidin-1-yl)pyridin-3-yl)-6-(2,6-difluorophenyl)picolinamide]
IC50 (Pim1 kinase): 1 nM

C[C@@H]1C[C@H](N)C[C@H](c2ccncc2NC(=O)c2nc(-c3c(F)cc(O)cc3F)ccc2F)C1 [Example 42, N-(4-((1R,3S,5S)-3-amino-5-methylcyclohexyl)pyridin-3-yl)-6-(2,6-difluoro-4-hydroxyphenyl)-3-fluoropicolinamide]
IC50 (Pim1 kinase): 1 nM

COc1ccc(F)c(-c2nc(C(=O)Nc3cnccc3[C@@H]3C[C@H](C)C[C@H](N)C3)ccc2F)c1 [Example 45, N-(4-((1R,3S,5S)-3-amino-5-methylcyclohexyl)pyridin-3-yl)-5-fluoro-6-(2-fluoro-5-methoxyphenyl)picolinamide]
IC50 (Pim1 kinase): 1 nM

C[C@@H]1C[C@H](N)C[C@H](c2ccncc2NC(=O)c2ccc(F)c([C@H]3CC[C@@H](O)CC3)n2)C1 [Example 54, N-(4-((1R,3S,5S)-3-amino-5-methylcyclohexyl)pyridin-3-yl)-5-fluoro-6-((1s,4s)-4-hydroxycyclohexyl)picolinamide]
IC50 (Pim1 kinase): 3 nM

C[C@@H]1C[C@H](N)C[C@H](c2ccncc2NC(=O)c2ccc(F)c([C@H]3CC[C@H](O)CC3)n2)C1 [Example 55, N-(4-((1R,3S,5S)-3-amino-5-methylcyclohexyl)pyridin-3-yl)-5-fluoro-6-((1r,4r)-4-hydroxycyclohexyl)picolinamide]
IC50 (Pim1 kinase): 3 nM

Nc1cc(F)c(-c2c(F)cccc2F)nc1C(=O)Nc1cnccc1[C@@H]1CC[C@H](O)[C@H](N)C1 [Example 65, 3-amino-N-(4-((1R,3R,4S)-3-amino-4-hydroxycyclohexyl)pyridin-3-yl)-6-(2,6-difluorophenyl)-5-fluoropicolinamide]
IC50 (Pim1 kinase): 1 nM

Nc1ccc(-c2c(F)cccc2F)nc1C(=O)Nc1cnccc1[C@@H]1CC[C@H](O)[C@@H](N)C1 [Example 104, 3-amino-N-(4-((1R,3S,4S)-3-amino-4-hydroxycyclohexyl)pyridin-3-yl)-6-(2,6-difluorophenyl)picolinamide]
IC50 (Pim1 kinase): 3 nM

Nc1ccc(-c2c(F)cccc2F)nc1C(=O)Nc1cnccc1C1=CC(N)CCC1 (stereo not drawn) [Example 107, 3-amino-N-(4-(3-aminocyclohex-1-enyl)pyridin-3-yl)-6-(2,6-difluorophenyl)picolinamide]
IC50 (Pim1 kinase): 2 nM

COc1cc(F)c(-c2cccc(C(=O)Nc3cnccc3[C@H]3C[C@@H](N)C[C@@H](C(F)(F)F)C3)n2)c(F)c1 [Example 109, N-(4-((1R,3R,5S)-3-amino-5-(trifluoromethyl)cyclohexyl)pyridin-3-yl)-6-(2,6-difluoro-4-methoxyphenyl)picolinamide]
IC50 (Pim1 kinase): 1 nM

C[C@H]1C[C@@H](c2ccncc2NC(=O)c2nc(-c3c(F)cccc3F)c(F)cc2N)C[C@@H](O)[C@@H]1O [Example 121, 3-amino-6-(2,6-difluorophenyl)-N-(4-((1R,3R,4R,5S)-3,4-methylcyclohexyl)pyridin-3-yl)-5-fluoropicolinamide]
IC50 (Pim3 kinase): 2 nM

CC1(C)C[C@H](N)C[C@H](c2ccncc2NC(=O)c2ccc(F)c(-c3c(F)cc(O)cc3F)n2)C1 [Example 122, N-(4-((1R,5R)-5-amino-3,3-dimethylcyclohexyl)pyridin-3-yl)-6-(2,6-difluoro-4-hydroxyphenyl)-5-fluoropicolinamide]
IC50 (Pim1 kinase): 1 nM

C[C@H]1C[C@@H](c2ccncc2NC(=O)c2ccc(F)c(-c3c(F)cccc3F)n2)C[C@@H](N)[C@H]1F [Example 139, N-(4-((1R,3R,4S,5S)-3-amino-4-fluoro-5-methylcyclohexyl)-pyridin-3-yl)-6-(2,6-difluorophenyl)-5-fluoropicolinamide]
IC50 (Pim3 kinase): 4 nM
